Assay results reported in PMC3945760, “Antioxidant action and cytotoxicity on HeLa and NIH-3T3 cells of new quercetin derivatives” (Interdisciplinary Toxicology, 2013).
Read-outs that look alike come from different tables or passages of the source.

Experiments:
[1] = Scavenging of DPPH radical; details: 10 min, room temperature, methanol, read-out: IC50 ± SD DPPH
Procedure: We used the simple spectrophotometric method according to Yen and Chen ([1995]) to determine the ability to scavenge free radicals. Binding of DPPH? radical by compounds causes its decolorization. The compounds tested were diluted in methanol to the final concentration 200 µM to 12.5 µM. Trolox served as standard antioxidant control. Reactions of samples with DPPH? solution were performed in 96-well plates and lasted for 10 min at room temperature in the dark. After that, the absorbance changes were measured spectrophotometrically at 520 nm (Multiskan FC, Thermo Scientific, DE). Each value is the mean of 5 wells with standard deviation. Inhibitory concentrations (IC50) were expressed as the concentration of the derivative tested to react with one half of the DPPH? and were calculated by SigmaPlot.

[2] = Ferric reducing antioxidant power (FRAP); details: 10 min, 37 °C, read-out: IC50 ± SD FRAP
Procedure: The antioxidant reducing power of the derivatives tested was performed using the FRAP method according to Benzie and Strain ([1996]). Ferric to ferrous ion reduction at low pH causes the formation of a colored ferrous-tripyridyltriazine complex. Samples diluted in methanol (200 µM to 12.5 µM) and FRAP reagent reacted for 10 min at 37 °C in 96-well microplates. At the end, absorbance changes were measured spectrophotometrically at 593 nm (Multiskan FC, Thermo Scientific, DE). Each value is the mean of 5 wells with standard deviation. Inhibitory concentrations (IC50) were expressed as the concentration of the derivative tested reducing one half of ferric complexes and were calculated by SigmaPlot.

[3] = system: human cervical cancer cells HeLa; assay: MTT assay on HeLa cells; type: cell-based; details: for IC50: MTT, 72 h drug exposure, read-out: IC50 ± SD HeLa cells
Procedure: (§1) The human tumor cell line HeLa and murine fibroblast NIH-3T3 cells were obtained from the ATCC (Rockville, MD, USA). The cells grown at 37 °C in humidified 5%-CO2 and 95%-air atmosphere were in Dulbecco's modified eagle medium supplemented with 10% (vol/vol) inactivated bovine serum, penicillin G and streptomycin (100 mg/l). Before a uniform monolayer of cells was formed, cells were freed from the surface of the culture flask by a 0.25% solution of trypsin and were subcultivated two to three times a week. The cells were plated on the cultivation flask (surface 25 cm^2) at a density of 4×10^4 HeLa cells and 6×10^4 NIH-3T3 cells per ml medium and incubated for 24 h prior to the experiments.
(§2) The cytotoxic effect of the compounds prepared on cells was detected in vitro using the mitochondrial cytotoxic test according to Jantová et al. ([2010]) with modifications. Cell viability was evaluated using thiazolyl blue tetrazolium bromide (MTT), which indicates the metabolic activity of cells. The experiment was performed in 96-well microplates. The cells were seeded at a density of 3.5×10^3 HeLa or NIH-3T3 cells per well. Samples were dissolved in DMSO (stock solution 10 mM) and subsequently diluted in medium to the final concentration of 5 µM to 100 µM (concentration of DMSO 0.5%) and after 24 h they were added to the cells. Microplates were cultivated for 72 h in thermostat at 37 °C and 5% CO2 atmosphere. After incubation thiazolyl blue tetrazolium bromide (3.33 mg/ml phosphate buffered saline, pH=7.4) was pipetted to each well and left to incubate for further two hours. Then the medium with MTT solution was removed. Formazan crystals in viable cells were dissolved in the lysis solution (4 mM HCl and 0.1% Nonidet P40 in ethanol). Microplates were shaken 15 min at 1500 rpm. Absorbance was measured at 540 nm and reference wavelength at 740 nm (Multiskan FC, Thermo Scientific, DE). Each value is the mean of 6 wells with standard deviation. Inhibition activity was expressed as percentages of control with DMSO. For each compound IC50 values were calculated by SigmaPlot.

[4] = system: non-cancer murine fibroblast cells NIH-3T3; assay: MTT assay on NIH-3T3 cells; type: cell-based; details: for IC50: MTT, 72 h drug exposure, read-out: IC50 ± SD NIH-3T3 cells
Procedure: as §1, §2

HeLa cells = assay: Light microscopy of HeLa cells; type: cell-based, human; details: 25 µM and 50 µM, 72 h
Procedure: (§3) The cytotoxic action of the effective chloronaphtoquinone quercetin 5 was further observed also by light microscopy after 72 h of HeLa and NIH-3T3 cells cultivation. […] On the other hand, a significant decrease in cell number was found in cells treated with both concentrations studied (25 µM and 50 µM).
(§4) We monitored prepared quercetin derivatives for their cytotoxic action on human cervical cancer cells HeLa in the concentration range from 5 µM to 100 µM. For comparison non-cancer murine fibroblast cells NIH-3T3 were also evaluated. The MTT test and light microscopy were used for cytotoxicity measurements.

NIH-3T3 cells = assay: Light microscopy of NIH-3T3 cells; type: cell-based, murine; details: NIH-3T3, 25 µM and 50 µM, 72 h
Procedure: as §3, §4

Structure (SMILES)	IC50 [1] [µM]	IC50 [2] [µM]	IC50 [3] [µM]	IC50 ([4]; Mus musculus, NIH3T3, 72 h) [µM]	inhibition at 25 µM ([3]; 25 µM, 72 h, read-out: Inhibition of cell proliferation) [%]	inhibition at 50 µM ([3]; 50 µM, 72 h, read-out: Inhibition of cell proliferation) [%]	inhibition at 100 µM ([3]; 100 µM, 72 h, read-out: Inhibition of cell proliferation) [%]	inhibition at 25 µM ([4]; Mus musculus, NIH3T3, NIH-3T3, 25 µM, 72 h, read-out: Inhibition of cell proliferation) [%]	inhibition at 50 µM ([4]; Mus musculus, NIH3T3, NIH-3T3, 50 µM, 72 h, read-out: Inhibition of cell proliferation) [%]	inhibition at 100 µM ([4]; Mus musculus, NIH3T3, NIH-3T3, 100 µM, 72 h, read-out: Inhibition of cell proliferation) [%]	morphologic changes (HeLa cells)	morphologic changes (NIH-3T3 cells)	IC50 [4] [µM]
CC(C)(CCl)C(=O)Oc1cc(OC(=O)C(C)(C)CCl)c2c(=O)c(O)c(-c3ccc(O)c(OC(=O)C(C)(C)CCl)c3)oc2c1 [compound 3]	> 200	> 200	65 ± 4.5	20.3 ± 1.9	–	–	–	–	–	–	–	–	–
CC(=O)Oc1ccc(/C=C/C(=O)Oc2ccc(-c3oc4cc(O)c(O)cc4c(=O)c3OC(=O)/C=C/c3ccc(OC(C)=O)c(OC(C)=O)c3)cc2OC(=O)/C=C/c2ccc(OC(C)=O)c(OC(C)=O)c2)cc1OC(C)=O [compound 11]	35.4 ± 2.7	> 200	16.5 ± 1.5	10.6 ± 0.1	–	–	–	–	–	–	–	–	–
Cc1c(C)c2c(c(C)c1O)CCC(C)(C(=O)O)O2 (stereo not shown) [T, trolox, reference compound]	34.7 ± 1	39.5 ± 2.1	34.7 ± 1	39.5 ± 2.1	–	–	–	–	–	–	–	–	–
O=c1c(O)c(-c2ccc(O)c(O)c2)oc2cc(O)cc(O)c12 [Q, quercetin]	16.2 ± 1.1	12.5 ± 0.9	35.5 ± 1.1	20.9 ± 0.9	–	–	–	–	–	–	–	–	–
CC(=O)Oc1cc(OC(C)=O)c2c(=O)c(OC(C)=O)c(-c3ccc(OC(C)=O)c(OC(C)=O)c3)oc2c1 [compound 6, pentaacetyl quercetin]	> 200	> 200	29.6 ± 1.9	15.5 ± 0.7	–	–	–	–	–	–	–	–	–
COc1ccc(/C=C/C(=O)Oc2ccc(-c3oc4cc(O)cc(O)c4c(=O)c3O)cc2OC(=O)/C=C/c2ccc(OC)c(OCC=C(C)C)c2)cc1OCC=C(C)C [compound 14]	82.8 ± 3.3	183 ± 13.5	> 50	> 50	–	–	–	–	–	–	–	–	–
COc1ccc(/C=C/C(=O)Oc2cc(-c3oc4cc(O)cc(O)c4c(=O)c3O)ccc2O)cc1OC(C)=O [compound 15]	> 200	> 200	> 50	> 50	–	–	–	–	–	–	–	–	–
O=C1c2c(O)cc(O)cc2OC2(c3ccc(O)c(O)c3)Oc3ccc(-c4oc5cc(O)cc(O)c5c(=O)c4O)cc3OC12O (stereo not shown) [compound 1, diquercetin]	58.8 ± 6.2	103 ± 6.2	64 ± 7.5	32.9 ± 1.1	–	–	–	–	–	–	–	–	–
O=C1C(Cl)=C(Oc2cc(-c3oc4cc(O)cc(O)c4c(=O)c3O)ccc2O)C(=O)c2ccccc21 [compound 5, chloronaphtoquinone quercetin]	28.4 ± 3	64.5 ± 0.6	13.2 ± 1.6	16.5 ± 0.1	94.5	97.9	97.7	71.9	85.2	93.7	cell rounding and cell separation from the cultivation surface	cell rounding and cell separation from the cultivation surface	–
CC(C)=CCOc1ccc(/C=C/C(=O)Oc2cc(O)c3c(=O)c(O)c(-c4ccc(OC(=O)/C=C/c5ccc(OCC=C(C)C)c(OCC=C(C)C)c5)c(OC(=O)/C=C/c5ccc(OCC=C(C)C)c(OCC=C(C)C)c5)c4)oc3c2)cc1OCC=C(C)C [compound 7]	> 200	> 200	> 50	> 100	–	–	–	–	–	–	–	–	> 50
CC(C)=CCOc1ccc(/C=C/C(=O)Oc2cc(O)c3c(=O)c(O)c(-c4ccc(OC(=O)/C=C/c5ccc(OCC=C(C)C)c(OCC=C(C)C)c5)c(O)c4)oc3c2)cc1OCC=C(C)C [compound 8]	161 ± 13.2	> 200	> 50	> 100	–	–	–	–	–	–	–	–	> 50
CC1CN(CC(O)COc2cc(O)cc3oc(-c4ccc(O)c(O)c4)c(O)c(=O)c23)CC(C)O1 (stereo not shown) [compound 4]	> 200	> 200	> 100	> 100	–	–	–	–	–	–	–	–	–
CC(=O)Oc1ccccc1C(=O)Oc1ccc(-c2oc3cc(O)cc(OC(=O)c4ccccc4OC(C)=O)c3c(=O)c2OC(=O)c2ccccc2OC(C)=O)cc1OC(=O)c1ccccc1OC(C)=O [compound 12, tetra(acetylsalicyloyl) quercetin]	> 200	> 200	> 50	> 50	–	–	–	–	–	–	–	–	–
CC(=O)OC1CC(OC(C)=O)(C(=O)Oc2cc(O)c3c(=O)c(O)c(-c4ccc(OC(=O)C5(OC(C)=O)CC(OC(C)=O)C(OC(C)=O)C(OC(C)=O)C5)c(O)c4)oc3c2)CC(OC(C)=O)C1OC(C)=O (stereo not shown) [compound 9, di(tetraacetylquinoyl) quercetin]	63.7 ± 2.6	112 ± 7.3	19.5 ± 0.8	16.1 ± 0.4	–	–	–	–	–	–	–	–	–
CC(C)(CCl)C(=O)Oc1cc(-c2oc3cc(O)cc(O)c3c(=O)c2O)ccc1O [compound 2]	27 ± 0.2	12.5 ± 0.3	43.4 ± 2.8	26.8 ± 0.5	–	–	–	–	–	–	–	–	–
